A short description of one data set: Compatibility of pH adjustors with the formulation. Conditions: in ibuprofen gel formulation. It counts as physicochemical. On the procedure: Hydrochloric acid and citric acid were tested as pH adjustors. […] As a consequence, it was selected as the preferred pH adjusting agent. Further details of the ibuprofen gels of the invention are set out in Example 1.
Regarding `O=C(O)CC(O)(CC(=O)O)C(=O)O` [Citric acid], the “compatibility / effect as pH adjustor” value is “changed the pH significantly”. Turning to `Cl` [Hydrochloric acid], the “compatibility / effect as pH adjustor” value is “precipitated and was not compatible with the formulation”.

Assay in another data set: not given
Particulars: classification on solubility and permeability; cited from earlier work.
With `c1ccc(-c2ccc(C(c3ccccc3)n3ccnc3)cc2)cc1` (centres unmarked) [Bifonazole], the BCS class result is recorded as “Class IV”. On to `CN/C(=N/CCSCc1nc[nH]c1C)NC#N` [Cimetidine], for which the BCS class entry is reported as “Class III”. In the case of `O=C(O)Cc1ccccc1Nc1c(Cl)cccc1Cl` [Diclofenac], the BCS class entry is on record as “class II”.

Regarding `NS(=O)(=O)c1cc2c(cc1Cl)NCNS2(=O)=O` [Hydrochlorothiazide], the BCS class entry is “class II”. On to `COCCc1ccc(OCC(O)CNC(C)C)cc1` (centres unmarked) [Metoprolol], for which the BCS class result is listed as “Class I”. As to `COc1ccc2cc([C@H](C)C(=O)O)ccc2c1` [Naproxen], the BCS class result is reported as “Class II”.
